Tests used:
CYP3A4 = CYP3A4 (Homo sapiens, UniProt P08684); assay: Biological Test Example 6: CYP3A4 inhibition (erythromycin N-demethylation); assay type: in vitro ADME
CYP2C9 [1] = molecular target: T1, CYP2C9 (Homo sapiens, UniProt P11712); assay: Biological Test Example 7: CYP2C9 inhibition (naproxen O-demethylation); assay type: in vitro ADME
T1 construct: purchased Invitrogen 2859; host or cells: insect cells infected with baculovirus (microsomes)

11β-HSD1 [2] = molecular target: T2, 11β-HSD1 (Homo sapiens, UniProt P28845); assay: biochemical; conditions: for inhibition at 0.1 µM: read-out: Average % inhibition at 100 nM
11β-HSD1 [3] = molecular target: T2, 11β-HSD1; assay: Biological Test Example 4: microsomal 11β-HSD1 in the presence of 50% human plasma; conditions: for Shift: IC50 in Test Example 4 divided by IC50 in Test Example 1
CYP2C9 [4] = molecular target: T1, CYP2C9; assay: Biological Test Example 9: CYP2C9 inhibition (Invitrogen kit, fluorogenic OOMR); assay type: in vitro ADME
[5] = Biological Test Example 1 IC50 (nM)
[6] = IC50 Range, Biological Test Example 1

CYP3A4, sequence (P08684 whole entry): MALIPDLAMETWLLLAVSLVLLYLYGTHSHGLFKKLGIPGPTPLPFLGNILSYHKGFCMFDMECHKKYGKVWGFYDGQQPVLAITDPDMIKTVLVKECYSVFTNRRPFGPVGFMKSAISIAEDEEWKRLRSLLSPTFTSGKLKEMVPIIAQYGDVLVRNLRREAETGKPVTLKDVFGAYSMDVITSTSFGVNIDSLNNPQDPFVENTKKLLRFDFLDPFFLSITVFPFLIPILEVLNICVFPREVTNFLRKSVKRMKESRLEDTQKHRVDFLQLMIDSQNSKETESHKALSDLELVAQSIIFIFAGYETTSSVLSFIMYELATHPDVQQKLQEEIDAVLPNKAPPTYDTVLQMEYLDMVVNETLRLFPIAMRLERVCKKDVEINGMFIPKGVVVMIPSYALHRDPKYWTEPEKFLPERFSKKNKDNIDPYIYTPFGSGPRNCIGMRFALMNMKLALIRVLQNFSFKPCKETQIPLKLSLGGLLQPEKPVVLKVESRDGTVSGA
T2 sequence (P28845 whole entry): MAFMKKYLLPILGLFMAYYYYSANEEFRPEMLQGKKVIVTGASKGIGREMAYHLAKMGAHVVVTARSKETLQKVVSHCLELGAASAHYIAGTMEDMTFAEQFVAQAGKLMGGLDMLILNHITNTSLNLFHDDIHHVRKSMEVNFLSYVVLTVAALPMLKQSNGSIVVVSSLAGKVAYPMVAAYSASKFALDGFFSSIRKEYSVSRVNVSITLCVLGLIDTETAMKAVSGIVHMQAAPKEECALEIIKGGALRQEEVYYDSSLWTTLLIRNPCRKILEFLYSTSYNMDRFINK
T1 sequence (P11712 whole entry): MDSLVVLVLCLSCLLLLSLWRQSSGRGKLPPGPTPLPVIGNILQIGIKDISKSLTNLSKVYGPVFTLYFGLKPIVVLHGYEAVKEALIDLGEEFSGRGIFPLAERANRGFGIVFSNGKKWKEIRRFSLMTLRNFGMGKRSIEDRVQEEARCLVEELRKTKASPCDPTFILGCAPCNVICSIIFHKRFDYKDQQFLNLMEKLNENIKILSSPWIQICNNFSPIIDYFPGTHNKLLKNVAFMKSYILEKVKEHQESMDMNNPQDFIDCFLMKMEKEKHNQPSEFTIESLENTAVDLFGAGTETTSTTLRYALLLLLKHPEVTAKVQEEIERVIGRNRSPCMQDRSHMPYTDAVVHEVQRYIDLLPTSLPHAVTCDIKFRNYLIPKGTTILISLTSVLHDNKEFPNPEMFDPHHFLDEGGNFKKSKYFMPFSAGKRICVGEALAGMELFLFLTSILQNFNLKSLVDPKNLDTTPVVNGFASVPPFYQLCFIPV

SMILES | IC50 (CYP3A4) | IC50 (CYP2C9 [1]) | IC50 (11β-HSD1 [2]; [5]) | IC50 (11β-HSD1 [2]; [6]) | inhibition at 0.1 µM (11β-HSD1 [2]) | IC50 (11β-HSD1 [3]) | IC50 (CYP2C9 [4]) | Shift (11β-HSD1 [3])
Cc1nc(-c2ccc([C@H](C)N3CC[C@](CC(C)(C)O)(c4ccccc4)OC3=O)cc2)ccc1C#N [EXAMPLE 1, 6-(4-((S)-1-((S)-6-(2-hydroxy-2-methylpropyl)-2-oxo-6-phenyl-1,3-oxazinan-3-yl)ethyl)phenyl)-2-methylnicotinonitrile] | 16700 nM | 12900 nM | 0.7 nM | < 100 nM | 96.4% | 7.3 nM | – | –
C[C@@H](c1ccc(-c2ccc(N)nc2)cc1)N1CC[C@](CCCO)(c2ccccc2)OC1=O [EXAMPLE 95, (R)-3-((S)-1-(4-(6-aminopyridin-3-yl)phenyl)ethyl)-6-(3-hydroxypropyl)-6-phenyl-1,3-oxazinan-2-one] | – | – | – | – | – | – | 2400 nM | –
Cc1cc(-c2ccc([C@H](C)N3CC[C@](CCC(N)=O)(c4ccccc4)OC3=O)cc2)ccn1 [EXAMPLE 98, 3-((R)-3-((S)-1-(4-(2-methylpyridin-4-yl)phenyl)ethyl)-2-oxo-6-phenyl-1,3-oxazinan-6-yl)propanamide] | 42200 nM | – | 1.4 nM | < 100 nM | 97.8% | 6.3 nM | – | –
C[C@@H](c1ccc(-c2ncc(C(=O)NC3CC3)s2)cc1)N1CC[C@](CC(C)(C)C#N)(c2ccccc2)OC1=O [EXAMPLE 21, 2-(4-((S)-1-((R)-6-(2-cyano-2-methylpropyl)-2-oxo-6-phenyl-1,3-oxazinan-3-yl)ethyl)phenyl)-N-cyclopropylthiazole-5-carboxamide] | – | – | 0.4 nM | < 100 nM | 99.2% | 3.4 nM | – | 7.8
C[C@@H](c1ccc(-c2ccc(C(F)(F)F)cn2)cc1)N1CC[C@](CCCO)(c2ccc(F)cc2)OC1=O [EXAMPLE 109, (R)-6-(4-fluorophenyl)-6-(3-hydroxypropyl)-3-((S)-1-(4-(5-(trifluoromethyl)pyridin-2-yl)phenyl)ethyl)-1,3-oxazinan-2-one] | – | – | 2.9 nM | < 100 nM | 91.5% | 31.9 nM | – | 11.0
Cc1cc(-c2ccc([C@H](C)N3CC[C@](CCC(N)=O)(c4ccc(F)cc4)OC3=O)cc2)ccn1 [EXAMPLE 78, 3-((R)-6-(4-fluorophenyl)-3-((S)-1-(4-(2-methylpyridin-4-yl)phenyl)ethyl)-2-oxo-1,3-oxazinan-6-yl)propanamide] | 7300 nM | – | 1.8 nM | < 100 nM | 95.8% | 19.8 nM | – | –
C[C@@H](c1ccc(-c2ncccc2C#N)cc1)N1CC[C@](CC(C)(C)O)(c2ccccc2)OC1=O [EXAMPLE 165, 2-(4-((S)-1-((S)-6-(2-hydroxy-2-methylpropyl)-2-oxo-6-phenyl-1,3-oxazinan-3-yl)ethyl)phenyl)nicotinonitrile] | – | – | 2.4 nM | < 100 nM | 94.5% | 42.5 nM | – | –
Cc1cc(-c2ccc([C@H](C)N3CC[C@](CCNS(C)(=O)=O)(c4ccccc4)OC3=O)cc2)ccn1 [EXAMPLE 103, N-(2-((S)-3-((S)-1-(4-(2-methylpyridin-4-yl)phenyl)ethyl)-2-oxo-6-phenyl-1,3-oxazinan-6-yl)ethyl)methanesulfonamide] | – | – | 1.9 nM | < 100 nM | 98.5% | 8.2 nM | – | 4.3
Cc1cc(-c2ccc([C@H](C)N3CC[C@](CCN(C)S(C)(=O)=O)(c4ccccc4)OC3=O)cc2)ccn1 [EXAMPLE 117, N-methyl-N-(2-((S)-3-((S)-1-(4-(2-methylpyridin-4-yl)phenyl)ethyl)-2-oxo-6-phenyl-1,3-oxazinan-6-yl)ethyl)methanesulfonamide] | – | – | 1.7 nM | < 100 nM | 93.9% | 12.1 nM | – | 7.3
C=CC[C@]1(c2ccc(F)cc2)CCN([C@@H](C)c2ccc(-c3sc(C)nc3C)cc2)C(=O)O1 [EXAMPLE 42, (R)-6-allyl-3-((S)-1-(4-(2,4-dimethylthiazol-5-yl)phenyl)ethyl)-6-(4-fluorophenyl)-1,3-oxazinan-2-one] | – | – | 1 nM | < 100 nM | 90.9% | 34.3 nM | – | 33.4
C[C@@H](c1ccc(-c2cccnc2)cc1)N1CC[C@](CCC(N)=O)(c2ccccc2)OC1=O [EXAMPLE 47, 3-((R)-2-oxo-6-phenyl-3-((S)-1-(4-(pyridin-3-yl)phenyl)ethyl)-1,3-oxazinan-6-yl)propanamide] | – | – | 2.6 nM | < 100 nM | 91% | 21.4 nM | – | –
C[C@@H](c1ccc(-c2nccs2)cc1)N1CC[C@](CCCO)(c2ccc(F)cc2)OC1=O [EXAMPLE 82, (R)-6-(4-fluorophenyl)-6-(3-hydroxypropyl)-3-((S)-1-(4-(thiazol-2-yl)phenyl)ethyl)-1,3-oxazinan-2-one] | – | – | 1.8 nM | < 100 nM | 98.1% | 25.2 nM | – | –
CC[C@@H](c1ccc(-c2cc(C)[n+]([O-])c(C)c2)cc1)N1CC[C@](CC(C)(C)O)(c2ccccc2)OC1=O [EXAMPLE 154, 4-(4-((S)-1-((S)-6-(2-hydroxy-2-methylpropyl)-2-oxo-6-phenyl-1,3-oxazinan-3-yl)propyl)phenyl)-2,6-dimethylpyridine 1-oxide] | – | – | 3.5 nM | < 100 nM | 90.7% | 13.2 nM | – | 3.8
COc1ccc(-c2ccc([C@H](C)N3CC[C@](CCO)(c4ccccc4)OC3=O)cc2)cn1 [EXAMPLE 92, (S)-6-(2-hydroxyethyl)-3-((S)-1-(4-(6-methoxypyridin-3-yl)phenyl)ethyl)-6-phenyl-1,3-oxazinan-2-one] | – | – | 0.5 nM | < 100 nM | 97.3% | 12.7 nM | – | 23.7
C[C@@H](c1ccc(-c2ncc(C(=O)NC(C)(C)C)s2)cc1)N1CC[C@](CC(C)(C)O)(c2ccccc2)OC1=O [EXAMPLE 23, N-tert-butyl-2-(4-((S)-1-((S)-6-(2-hydroxy-2-methylpropyl)-2-oxo-6-phenyl-1,3-oxazinan-3-yl)ethyl)phenyl)thiazole-5-carboxamide] | – | – | 2.7 nM | < 100 nM | 89.3% | 13.7 nM | – | 5.1
C[C@@H](c1ccc(-c2cccc(OC3CCCC3)n2)cc1)N1CC[C@](CC(C)(C)O)(c2ccccc2)OC1=O [EXAMPLE 28, (S)-3-((S)-1-(4-(6-(cyclopentyloxy)pyridin-2-yl)phenyl)ethyl)-6-(2-hydroxy-2-methylpropyl)-6-phenyl-1,3-oxazinan-2-one] | – | – | 1.4 nM | < 100 nM | 89.7% | 186 nM | – | 129.7
Cc1cc(-c2ccc([C@H](C)N3CC[C@](CCCO)(c4ccc(F)cc4)OC3=O)cc2)cc(C)[n+]1[O-] [EXAMPLE 122, 4-(4-((S)-1-((R)-6-(4-fluorophenyl)-6-(3-hydroxypropyl)-2-oxo-1,3-oxazinan-3-yl)ethyl)phenyl)-2,6-dimethylpyridine 1-oxide] | – | – | 2.5 nM | < 100 nM | 94.5% | 6.5 nM | – | 2.6
C[C@@H](c1ccc(-c2ccc(OCCF)nc2)cc1)N1CC[C@](CC(C)(C)O)(c2ccccc2)OC1=O [EXAMPLE 200, (S)-3-((S)-1-(4-(6-(2-fluoroethoxy)pyridin-3-yl)phenyl)ethyl)-6-(2-hydroxy-2-methylpropyl)-6-phenyl-1,3-oxazinan-2-one] | – | – | 0.96 nM | < 100 nM | 98.3% | 18.3 nM | – | 19.1
C[C@@H](c1ccc(-c2ccccn2)cc1)N1CC[C@](CC(C)(C)O)(c2ccccc2)OC1=O [EXAMPLE 86, (S)-6-(2-hydroxy-2-methylpropyl)-6-phenyl-3-((S)-1-(4-(pyridin-2-yl)phenyl)ethyl)-1,3-oxazinan-2-one] | – | – | 0.6 nM | < 100 nM | 99.6% | 6.4 nM | – | 11.1
C[C@@H](c1ccc(-c2cncc(C#N)n2)cc1)N1CC[C@](CC(C)(C)O)(c2ccc(F)cc2)OC1=O [EXAMPLE 157, 6-(4-((S)-1-((S)-6-(4-fluorophenyl)-6-(2-hydroxy-2-methylpropyl)-2-oxo-1,3-oxazinan-3-yl)ethyl)phenyl)pyrazine-2-carbonitrile] | – | – | 2.9 nM | < 100 nM | 96.3% | 27.4 nM | – | 9.6
Cc1cc(-c2ccc([C@H](C)N3CC[C@](CCO)(c4ccccc4)OC3=O)cc2)ccn1 [EXAMPLE 96, (S)-6-(2-hydroxyethyl)-3-((S)-1-(4-(2-methylpyridin-4-yl)phenyl)ethyl)-6-phenyl-1,3-oxazinan-2-one] | – | – | 0.7 nM | < 100 nM | 99.8% | 5.6 nM | – | –
Cc1cc(-c2ccc([C@H](C)N3CC[C@](CCCNS(C)(=O)=O)(c4ccccc4)OC3=O)cc2)ccn1 [EXAMPLE 99, N-(3-((R)-3-((S)-1-(4-(2-methylpyridin-4-yl)phenyl)ethyl)-2-oxo-6-phenyl-1,3-oxazinan-6-yl)propyl)methanesulfonamide] | – | – | 0.5 nM | < 100 nM | 98.5% | 7.9 nM | – | 16.6
Cc1cn(-c2ncc(-c3ccc([C@H](C)N4CC[C@](CC(C)(C)O)(c5ccccc5)OC4=O)cc3)cn2)c(C)n1 [EXAMPLE 26, (S)-3-((S)-1-(4-(2-(2,4-dimethyl-1H-imidazol-1-yl)pyrimidin-5-yl)phenyl)ethyl)-6-(2-hydroxy-2-methylpropyl)-6-phenyl-1,3-oxazinan-2-one] | – | – | 1.7 nM | < 100 nM | 95.2% | 6.8 nM | – | 4.1

Source: patent US8569292B2, “Cyclic inhibitors of 11β-hydroxysteroid dehydrogenase 1” (Vitae Pharmaceuticals, Inc., priority 2008, dated 2013)
